Numbers after ± are expanded uncertainties.
Experiments:
[1] = 100 kPa, Liquid, Frequency=0.01 MHz, Alternating current cell with electrodes
[2] = xn = mol fraction of the nth substance listed; conditions: 100 kPa, Liquid, Frequency=0.01 MHz, Alternating current cell with electrodes
[3] = mn = molality of the nth substance listed, in mol/kg; conditions: 100 kPa, Liquid, Frequency=0.01 MHz, Alternating current cell with electrodes

CCCO [propan-1-ol]
[1]
Conditions | electrical conductivity [S/m]
293.15 K | 1.51e-06 ± 4e-07
298.15 K | 1.8e-06 ± 4e-07
303.15 K | 2.16e-06 ± 4e-07
308.15 K | 2.38e-06 ± 4e-07

CCCO [propan-1-ol] + O
electrical conductivity [S/m], [2]
Conditions | x2 = 0 | x2 = 0.1 | x2 = 0.2 | x2 = 0.3 | x2 = 0.4 | x2 = 0.5 | x2 = 0.6 | x2 = 0.7 | x2 = 0.8
293.15 K | 1.51e-06 ± 6e-08 | 3.98e-06 ± 7e-07 | 8.35e-06 ± 1e-06 | 1.38e-05 ± 1e-06 | 1.71e-05 ± 9.3e-07 | 2.01e-05 ± 1.2e-06 | 2.54e-05 ± 1.3e-06 | 2.84e-05 ± 1.3e-06 | 3.15e-05 ± 1.4e-06
298.15 K | 1.8e-06 ± 7e-08 | 4.32e-06 ± 6.7e-07 | 8.31e-06 ± 1.1e-06 | 1.46e-05 ± 1.2e-06 | 1.86e-05 ± 1e-06 | 2.13e-05 ± 1.1e-06 | 2.55e-05 ± 1.3e-06 | 2.93e-05 ± 1.4e-06 | 3.36e-05 ± 1.6e-06
303.15 K | 2.16e-06 ± 9e-08 | 4.68e-06 ± 8.3e-07 | 1.03e-05 ± 1.2e-06 | 1.58e-05 ± 1.1e-06 | 1.92e-05 ± 1e-06 | 2.27e-05 ± 1.2e-06 | 2.68e-05 ± 1.3e-06 | 3.06e-05 ± 1.5e-06 | 3.5e-05 ± 1.7e-06
308.15 K | 2.38e-06 ± 1e-07 | 4.92e-06 ± 6.5e-07 | 8.6e-06 ± 1.2e-06 | 1.65e-05 ± 1.3e-06 | 2.01e-05 ± 1.2e-06 | 2.55e-05 ± 1.4e-06 | 2.96e-05 ± 1.4e-06 | 3.26e-05 ± 1.5e-06 | 3.75e-05 ± 1.8e-06

[I-].[Na+] [sodium iodide] + CCCO
[3]
Conditions | electrical conductivity [S/m]
293.15 K, m1 = 0.0007138 | 0.00107 ± 4.3e-05
298.15 K, m1 = 0.0009446 | 0.00154 ± 6.2e-05
303.15 K, m1 = 0.0007238 | 0.00135 ± 5.4e-05
308.15 K, m1 = 0.0006021 | 0.00126 ± 5.1e-05
